We go through 25 compounds from patent publication US7863332B2, “Biaromatic compound activators of PPARγ receptors and cosmetic/pharmaceutical compositions comprised thereof” (Galderma Research & Development, priority 2004, dated 2011).

For data set [1], the target named is T1, PPARγ (Homo sapiens, UniProt P37231).
T1 sequence (P37231 238-505 limits assumed): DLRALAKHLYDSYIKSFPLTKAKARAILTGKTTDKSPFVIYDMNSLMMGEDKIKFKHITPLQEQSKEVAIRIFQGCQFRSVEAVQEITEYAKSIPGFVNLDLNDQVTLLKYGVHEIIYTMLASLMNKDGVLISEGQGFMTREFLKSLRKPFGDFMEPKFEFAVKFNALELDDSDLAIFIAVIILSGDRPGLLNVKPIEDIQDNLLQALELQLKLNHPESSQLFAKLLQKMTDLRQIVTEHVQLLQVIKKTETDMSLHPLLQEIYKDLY
In words: Cross-curve PPAR transactivation test (PPARγ). In kind it is cell-based. Particulars: HeLN cells, Gal-hPPARγ, luciferase reporter; cross curves against reference agonist, Schild regression; n.a means not active; read-out: PPAR gamma Kd app. How it is done:
(§1) The activation of PPAR receptors with an agonist (activator) in HeLN cells leads to the expression of a reporter gene, luciferase, which, in the presence of a substrate, generates light. The modulation of the PPAR receptors is measured by quantifying the luminescence produced after incubating the cells in the presence of a reference agonist. The ligands displace the agonist from its site. The measurement of the activity is performed by quantifying the light produced. This measurement makes it possible to determine the modulatory activity of the compounds according to the invention by determining the constant that is the affinity of the molecule for the PPAR receptor. Since this value can fluctuate depending on the basal activity and the expression of the receptor, it is referred to as Kd apparent (KdApp in nM).
(§2) To determine this constant, “cross curves” of the test product against a reference agonist are produced in a 96-well plate: 10 concentrations of the test product plus a concentration 0 are arranged in a line, and 7 concentrations of the agonist plus a concentration 0 are arranged in a column. This is 88 measurement points for 1 product and 1 receptor. The remaining 8 wells are used for repeatability controls.
(§3) Measurements are also taken for total agonist controls with the same products.
(§4) The HeLN cell lines used are stable transfectants containing the plasmids ERE-βGlob-Luc-SV-Neo (reporter gene) and PPAR (α, δ, γ) Gal-hPPAR. These cells are inoculated into 96-well plates at a rate of 10 000 cells per well in 100 μl of DMEM medium without phenol red and supplemented with 10% of defatted calf serum. The plates are then incubated at 37° C. and 7% CO2 for 16 hours.
(§5) The various dilutions of the test products and of the reference ligand are added at a rate of 5 μl per well. The plates are then incubated for 18 hours at 37° C. and 7% CO2. The culture medium is removed by turning over and 100 μl of a 1:1 PBS/luciferin mixture are added to each well. After 5 minutes, the plates are read by the luminescence detector.
Background: Reporter assays use an easily measured gene product as a stand-in for the process of interest.

Data set [2] deals with T2, PPARδ (Homo sapiens, UniProt Q03181).
T2 sequence (Q03181 171-441 limits assumed): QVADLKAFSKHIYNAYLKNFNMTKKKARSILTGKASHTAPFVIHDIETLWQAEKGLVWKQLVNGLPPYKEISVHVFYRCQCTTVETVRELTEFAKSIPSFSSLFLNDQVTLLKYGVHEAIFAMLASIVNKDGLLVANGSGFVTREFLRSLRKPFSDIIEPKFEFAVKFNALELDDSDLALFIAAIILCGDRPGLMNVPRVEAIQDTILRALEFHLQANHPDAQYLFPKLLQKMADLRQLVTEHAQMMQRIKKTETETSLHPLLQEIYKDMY
Description: Cross-curve PPAR transactivation test (PPARδ). In kind it is cell-based. Particulars: HeLN cells, Gal-hPPARδ, luciferase reporter; cross curves against reference agonist, Schild regression; n.a means not active; read-out: PPARs delta Kd app. The procedure: as §1, §2, §3, §4, §5

For data set [3], the target named is T3, PPARα (Homo sapiens, UniProt Q07869).
T3 sequence (Q07869 202-468 limits assumed): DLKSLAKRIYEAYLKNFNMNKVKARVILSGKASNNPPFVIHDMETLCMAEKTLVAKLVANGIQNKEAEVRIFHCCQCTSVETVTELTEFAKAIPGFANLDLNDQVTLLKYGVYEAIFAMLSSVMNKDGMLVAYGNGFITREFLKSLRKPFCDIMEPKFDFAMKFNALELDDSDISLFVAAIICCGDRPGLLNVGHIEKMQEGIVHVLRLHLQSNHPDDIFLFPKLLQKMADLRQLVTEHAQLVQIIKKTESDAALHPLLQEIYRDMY
In words: Cross-curve PPAR transactivation test (PPARα). The data set is classed as cell-based. Particulars: HeLN cells, Gal-hPPARα, luciferase reporter; cross curves against reference agonist, Schild regression; n.a means not active; read-out: PPAR alpha Kd app. The procedure:
as §1, §2, §3, §4, §5

For `CCCCCCCNC(=O)N(C)c1cccc(-c2ccc(CCC(=O)O)c(F)c2)c1` [Example 3, 3-[3-fluoro-3′-(3-heptyl-1-methylureido)biphenyl-4-yl]propanoic acid], the values for the Kd in data set [1], in data set [2] and in data set [3] were 0.004 µM, 2 µM and 2 µM, respectively.

The term melting point denotes the temperature, or range, at which the solid turns liquid. Take `CCCCCCCNC(=O)N(C)c1cccc(-c2ccc(CCC(=O)NO)cc2)c1` [Example 6, 3-[3′-(3-heptyl-1-methylureido)biphenyl-4-yl]-N-hydroxypropionamide]: the melting point fell in the range of 100 to 101 °C.

`CN(C(=O)Nc1ccc2ccccc2c1)c1cccc(-c2ccc(CCC(=O)O)cc2)c1` [Example 7, 3-[3′-(1-methyl-3-naphthalen-2-ylureido)biphenyl-4-yl]propanoic acid] came in with a melting point of 170 to 171 °C.

Compound `CCCCCCCNC(=S)N(C)c1cccc(-c2ccc(CCC(=O)O)cc2)c1` [Example 8, 3-[3′-(3-heptyl-1-methylthioureido)biphenyl-4-yl]propanoic acid] had a melting point of 95 to 96 °C.

`CCCCCCCNC(=O)N(C)c1cccc(-c2ccc(/C=C/C(=O)O)cc2F)c1` [Example 9, (E)-3-[2-fluoro-3′-(3-heptyl-1-methylureido)biphenyl-4-yl]acrylic acid] registered a melting point of 130 to 131 °C.

For `CCCCCCCNC(=O)N(C)c1cccc(-c2ccc(CCC(=O)O)cc2F)c1` [Example 10, 3-[2-fluoro-3′-(3-heptyl-1-methylureido)biphenyl-4-yl]propanoic acid], the melting point is 80 to 82 °C.

As for `CCCCCCNC(=O)N(C)c1cccc(-c2ccc(CCC(=O)O)cc2)c1` [Example 11, 3-[3′-(3-hexyl-1-methylureido)biphenyl-4-yl]propanoic acid], the melting point lay within 119 to 120 °C.

On to `CCCCc1ccc(NC(=O)N(C)c2cccc(-c3ccc(CCC(=O)O)cc3)c2)cc1` [Example 14, 3-{3′-[3-(4-butylphenyl)-1-methylureido]biphenyl-4-yl}propanoic acid], for which the figures for the Kd in data set [1], in data set [2] and in data set [3] were 0.002 µM, 0.5 µM and 0.5 µM, respectively.

On to `CCCCCCCNC(=O)N(C)c1cccc(-c2ccc(CCC(=O)O)cc2OCCOC)c1` [Example 15, 3-[3′-(3-heptyl-1-methylureido)-2-(2-methoxyethoxy)biphenyl-4-yl]propanoic acid], for which the Kd in data set [1] is 0.002 µM; in data set [2], 2 µM; in data set [3] it was 2 µM.

As to `CCCCCCCNC(=O)N(C)c1cccc(-c2ccc(CCC(=O)O)cc2OCCCCl)c1` [Example 17, 3-[2-(3-chloropropoxy)-3′-(3-heptyl-1-methylureido)biphenyl-4-yl]propanoic acid], the Kd in data set [1] came out at 0.001 µM; in data set [3] it was 0.5 µM.

As to `CCCCCCCNC(=O)N(C)c1cccc(-c2ccc(CCC(=O)O)cc2OC)c1` [Example 18, 3-[3′-(3-heptyl-1-methylureido)-2-methoxybiphenyl-4-yl]propanoic acid], the Kd amounted to 0.004 µM in data set [1], 0.25 µM in data set [2] and 2 µM in data set [3].

For `CCCCCCCNC(=O)N(C)c1cccc(-c2ccc(/C=C/C(=O)O)cc2OCc2ccccc2)c1` [Example 24, (E)-3-[2-benzyloxy-3′-(3-heptyl-1-methylureido)biphenyl-4-yl]acrylic acid], the Kd was determined as 0.004 µM in data set [1], 2 µM in data set [2] and 0.5 µM in data set [3].

Regarding `CCCCCCCNC(=O)N(C)c1cccc(-c2ccc(CCC(=O)O)cc2OCCC)c1` [Example 25, 3-[3′-(3-heptyl-1-methylureido)-2-propoxybiphenyl-4-yl]propanoic acid], the Kd was 0.00025 µM in data set [1], 0.12 µM in data set [2] and 0.5 µM in data set [3].

With `CCCCOc1ccc(NC(=O)N(C)c2cccc(-c3ccc(CCC(=O)O)cc3)c2)cc1` [Example 33, 3-{3′-[3-(4-butoxyphenyl)-1-methylureido]biphenyl-4-yl}propanoic acid], the values for the Kd in data set [1] and in data set [2] were 0.004 µM and 1 µM, respectively.

In the case of `CCCCOc1ccc(NC(=O)N(CC)c2cccc(-c3ccc(CCC(=O)O)cc3)c2)cc1` [Example 34, 3-{3′-[3-(4-butoxyphenyl)-1-ethylureido]biphenyl-4-yl}propanoic acid], the Kd in data set [1] was determined as 0.002 µM; in data set [2], 0.008 µM; in data set [3], 0.5 µM.

Consider `CCCCCCCNC(=O)N(C)c1cccc(-c2ccc(CCC(=O)O)cc2OCC2CC2)c1` [Example 35, 3-[2-cyclopropylmethoxy-3′-(3-heptyl-1-methylureido)biphenyl-4-yl]propanoic acid], for which the values for the Kd in data set [1] and in data set [2] were 0.001 µM and 1 µM, respectively.

For `CCCCCCCNC(=O)N(C)c1cccc(-c2ccc(CCC(=O)O)cc2OCCC(F)(F)F)c1` [Example 37, 3-[3′-(3-heptyl-1-methylureido)-2-(3,3,3-trifluoropropoxy)biphenyl-4-yl]propanoic acid], the Kd in data set [1] amounted to 0.002 µM; in data set [2], 2 µM; in data set [3] it was 0.25 µM.

`CCCCCCCNC(=O)N(C)c1cccc(-c2ccc(CCC(=O)O)cc2OCCCCO)c1` [Example 40, 3-[3′-(3-heptyl-1-methylureido)-2-(4-hydroxybutoxy)biphenyl-4-yl]propanoic acid]: the results for the Kd in data set [1] and in data set [3] were 0.001 µM and 8 µM, respectively.

As to `CCCCCCCNC(=O)N(C)c1cccc(-c2ccc(CCC(=O)O)cc2OCc2ccccc2)c1` [Example 42, 3-[2-benzyloxy-3′-(3-heptyl-1-methylureido)biphenyl-4-yl]propanoic acid], the values for the Kd in data set [1] and in data set [3] were 0.001 µM and 4 µM, respectively.

Consider `CCCCCCCNC(=O)N(C)c1cccc(-c2ccc(CCC(=O)O)cc2OCc2cccc(F)c2)c1` [Example 43, 3-[2-(3-fluorobenzyloxy)-3′-(3-heptyl-1-methylureido)biphenyl-4-yl]propanoic acid], for which the Kd in data set [1] was determined as 0.002 µM; in data set [3], 2 µM.

Regarding `CCCCCCCNC(=O)N(C)c1cccc(-c2ccc(CCC(=O)O)cc2OCCCCC)c1` [Example 45, 3-[3′-(3-heptyl-1-methylureido)-2-pentyloxybiphenyl-4-yl]propanoic acid], the values for the Kd in data set [1] and in data set [3] were 0.00025 µM and 0.12 µM, respectively.

On to `CCCCCNC(=O)N(C)c1cccc(-c2ccc(CCC(=O)O)cc2OCCCCC)c1` [Example 46, 3-[3′-(1-methyl-3-pentylureido)-2-pentyloxybiphenyl-4-yl]propanoic acid], for which the Kd is 0.00025 µM in data set [1] and 0.03 µM in data set [3].

As for `CCCCCCCNC(=O)N(C)c1cccc(-c2ccc(CCC(=O)O)cc2OCCOCC)c1` [Example 47, 3-[2-(2-ethoxyethoxy)-3′-(3-heptyl-1-methylureido)biphenyl-4-yl]propanoic acid], the Kd in data set [1] was found to be 0.002 µM; in data set [3] it was 1 µM.

For the compound `CCCCOc1cc(CCC(=O)O)ccc1-c1cccc(N(C)C(=O)Nc2ccccc2)c1` [Example 48, 3-[2-butoxy-3′-(1-methyl-3-phenylureido)biphenyl-4-yl]propanoic acid], the Kd in data set [1] is 0.002 µM; in data set [3] it was 2 µM.

As for `CCCCCNC(=O)N(C)c1cccc(-c2ccc(CCC(=O)O)cc2OCCOCC)c1` [Example 49, 3-[2-(2-ethoxyethoxy)-3′-(1-methyl-3-pentylureido)biphenyl-4-yl]propanoic acid], the values for the Kd in data set [1] and in data set [3] were 0.002 µM and 2 µM, respectively.
